Publication PMC4725915, “Ruthenium(II) Complexes with 2-Phenylimidazo[4,5-f][1,10]phenanthroline Derivatives that Strongly Combat Cisplatin-Resistant Tumor Cells” (Scientific Reports, 2016)

Key:
[1] = test system: A549R cells; experiment: AO/EB staining apoptosis assay; type: cell-based, human; details: 0.50–2.0 μM
From the text: Cell apoptosis is a naturally occurring, programmed and targeted cellular death mechanism that is very complex and is regulated by some proteins. This process is also greatly affected by extrinsic conditions. Therefore, it is important to study the influence of drug-induced cellular apoptosis. Firstly, the induction of A549R cell apoptosis by complex 4 was investigated by apoptosis assays using AO/EB staining and fluorescence microscopy. […] Necrotic cells are stained in red but have nuclear morphologies that resemble those of viable cells.

[2] = test system: LO2; experiment: MTT cytotoxicity assay, normal LO2 cells; type: cell-based; details: LO2 normal human cell line, 48 h
Method: Compounds 1–4 were evaluated against three tumor cell lines derived from different tissues, including the cervix (HeLa), lung (A549) and cisplatin-resistant lung (A549R) tissues. For comparison, the cytotoxicity of cisplatin was also evaluated. As a control, the toxicities of the complexes were also tested against the normal human cell line (LO2).
The human cervix carcinoma cell line (HeLa), the lung carcinoma cell lines (A549 and A549R), and the human hepatocyte cell line (LO2) were obtained from the Experimental Animal Center at Sun Yat-Sen University (Guangzhou, China). The cells were maintained in Dulbecco’s modified Eagle’s medium (DMEM, Gibco BRL) or Roswell Park Memorial Institute 1640 (RPMI 1640, Gibco BRL) medium supplemented with 10% fetal bovine serum (FBS, Gibco BRL), 100 μg/mL streptomycin, and 100 U/mL penicillin (Gibco BRL) in a humidified incubator under 5% CO2 and 20% O2 at 37 °C. To maintain the resistant phenotype, A549R cells were incubated with 5 μM cisplatin and cultured in drug-free medium for at least a week before use.
The cytotoxicity of the ruthenium complexes and cisplatin were determined by an MTT assay. Briefly, cells were seeded into 96-well microtiter plates at 1 × 10^4 cells per well and grown overnight at 37 °C in a 5% CO2 incubator; then, different concentrations of the complexes in cell culture medium were added to the cultures. The plates were then incubated in an incubator for 48 h under the same conditions. The stock MTT dye solution (15 μL, 5 mg/mL) was added to each well. After 4 h of incubation, the cultures were removed and 150 μL of DMSO was added to each well. The optical density of each well was measured on a microplate spectrophotometer at a wavelength of 595 nm.

[3] = test system: A549R MCTSs; experiment: Cytotoxicity test on 3D MCTSs (Cell TiterGlo ATP); type: cell-based, human; details: A549R MCTSs (~400 μm in diameter), 48 h
Method: MCTSs were cultured using the liquid overlay method. A549R cells in the exponential growth phase were dissociated by a trypsin/EDTA solution to gain single-cell suspensions. A number of 3000 diluted A549R cells were transferred to 1.5% agarose-coated transparent 96-well plates with 200 μL of DMEM containing 10% serum. The single cells formed MCTS aggregates approximately 400 μm in diameter after three days with 5% CO2 and 20% O2 at 37 °C. After formation of the MCTSs, each MCTS in a 96-well plate was imaged with a phase contrast microscope (Zeiss Axio Observer D1, Germany) using 10× objective to monitor their color, integrity, diameter, and volume.
A549R MCTSs (diameters ≈400 μm) were treated by carefully replacing 50% of the medium with drug-supplemented standard medium using an eight-channel pipet. In parallel, 50% of the medium containing solvent was replaced with solvent-free medium for the untreated MCTSs. Three A549R MCTSs were treated per condition and drug concentration; the DMSO volume was less than 1% (v/v). The MCTSs were then allowed to incubate for another 48 h. The cytotoxicities of the Ru(II) complexes toward the MCTSs were measured using ATP concentrations with a Cell TiterGlo kit (Promega). After 30 min of incubation, the MCTSs were carefully transferred into black-sided, flat-bottomed 96-well plates (Corning) and mixed with a pipet for luminescence measurements on an Infinite M200 PRO instrument (TECAN).

[4] = test system: A549R cells; experiment: Intracellular ROS (DCFH-DA staining); type: cell-based, human; details: 0.5 μM, 12 h
Method: TrxR is a key enzyme in the regulation of the intracellular redox environment. However, cellular oxidative stress is known to trigger the initiation of apoptotic signaling, which results in cell death. Complex 4 was proven to inhibit the activity of TrxR and could induce severe oxidative stress in A549R cells. To assess the capacity of complex 4 to generate intracellular reactive oxygen species (ROS), A549R cells were treated with different concentrations of complex 4 for 12 h and stained with 2′,7′-dichlorofluorescein diacetate (DCFH-DA)[46]. DCFH-DA is an oxidation-sensitive dye that is specifically detected by measuring the enhanced green fluorescent intensity caused by intracellular ROS. This dye was used to quantify the generation of intracellular ROS. […] These findings were further confirmed with flow cytometric analyses (Fig. 5d).
The generation of reactive oxygen species (ROS) in A549R cells was measured using a ROS sensitive fluorescent probe, 2,7-dichlorodihydrofluorescein diacetate (DCFH-DA). […] The levels of intracellular ROS were examined with an inverted fluorescence microscope (Zeiss Axio Observer D1) and flow cytometry (FACSCanto II, BD Biosciences, USA). The excitation wavelength was 485 nm, and the fluorescence was measured at 530 nm. […]

Substance: Ru(phen)(bzq)(tbtfpip)(PF6) [Complex 4]
- AO/EB staining result [1]: predominantly induced apoptosis
- IC50 [2]: 6.7 ± 2.4 µM
- IC50 [3]: 1800 ± 300 nM
- intracellular ROS levels [4]: increase in ROS
